For one assay, the system named is murine sialidases. Conditions: mice, cited from earlier work.
Assay [1] addresses LPS-induced mouse macrophage sialidase activity. As to conditions: cited from earlier work.
In the next assay the test system is human sialidases. As to conditions: all four human sialidases; carboxylate form; cited from earlier work.
The test system of a further assay is human PBMC. Put plainly: TGF-β1 accumulation by human PBMC (antibody staining and ELISA). It counts as cell-based. As to conditions: inhibitor 3 μM; sialidases 200 ng/ml; 5 days; ELISA. The protocol:
To determine if sialidases might cause cells to accumulate intracellular and extracellular TGF-β1, human PBMC were cultured with sialidases in 96 well plates at 5×10^5 cells/ml and 200 μl/well in FibroLife serum-free medium for five days, then air dried. The levels of TGF-β1 in or on the cells was detected by staining with an antibody against TGF-β1. Photomicrographs were analyzed by counting stained cells (FIG. 7B) and quantifying staining intensity using ImageJ (FIG. 7C).
PBMC were cultured in 96 well plates at 5×10^5 cells/ml and 200 μl/well in FibroLife serum-free medium. When the cells were plated, recombinant human sialidases were added to final concentrations of 200 ng/ml, and DANA or oseltamivir were added to 3 μM. After 5 days, culture supernatants were analyzed using a TGF-β1 ELISA kit (R&D Systems).

The test system of assay [2] is mice with bleomycin-induced fibrosis. Put plainly: mouse bleomycin model of pulmonary fibrosis. It counts as in vivo. As to conditions: day 21. As to the method:
The successful aspiration of bleomycin into the lungs was confirmed by listening for a crackling noise heard after the aspiration. Mice were weighed daily, and euthanized using CO2 following NIH guidelines at day 21 after bleomycin aspiration. The experiment was performed in accordance with the recommendations in the Guide for the Care and Use of Laboratory Animals of the National Institutes of Health. The Texas A&M University Animal Use and Care Committee approved the protocol.
The BALs were clarified by centrifugation at 500×g for 10 minutes, and the supernatants were transferred to Eppendorf tubes. The supernatants were flash frozen with liquid nitrogen, and stored at −20° C. until further use.
After collection of BAL fluid, mouse lungs were inflated with prewarmed Optimal Cutting Temperature (OCT) embedding medium (VWR, Radnor, PA) and then embedded in OCT, frozen on dry ice, and then stored at −80° C. 6-micron cryosections of mouse lungs were mounted on Superfrost Plus® microscope slides (VWR). The sections on the slides were allowed to air-dry for 24-48 hours. The slides were then fixed in acetone at room temperature for 20 minutes and air-dried for 10 minutes.
Then, starting 24 hours after bleomycin had been administered, the mice were given daily intraperitoneal injections of 10 mg/kg DANA (Calbiochem) in PBS or 10 mg/kg oseltamivir (Sigma) in PBS. Both inhibitors are quite polar and thus probably remain in the extracellular space. Assuming 2 ml of extracellular space in a 20 gram mouse, these doses would then be ˜3 μM. At day 21, mice were sacrificed and BAL and cryosections of lungs were obtained as described for Example 3. The experiment was performed in accordance with the recommendations in the Guide for the Care and Use of Laboratory Animals of the National Institutes of Health. The Texas A&M University Animal Use and Care Committee approved the protocol.
Treatment of mice with oropharyngeal bleomycin results in an initial inflammation, and then a fibrosis that has begun by day 10 after bleomycin treatment. To determine if sialidase inhibitors decrease fibrosis when treatment starts after the initial inflammation stage and when fibrosis is present, mice were treated with oropharyngeal bleomycin to induce symptoms of pulmonary fibrosis as described above. Then, starting 10 days after bleomycin had been administered, the mice were given daily intraperitoneal injections of 10 mg/kg DANA (Calbiochem) in PBS or 10 mg/kg oseltamivir (Sigma) in PBS. At day 21, mice were sacrificed and BAL and cryosections of lungs were obtained as described above. The experiment was performed in accordance with the recommendations in the Guide for the Care and Use of Laboratory Animals of the National Institutes of Health. The Texas A&M University Animal Use and Care Committee approved the protocol.
To determine if sialidase inhibitors could also reduce TGF-β1 levels in mice, mice were treated with bleomycin or saline, then injected daily with saline, DANA or oseltamivir starting at day 10 after bleomycin treatment, as described in Example 9. The mice were euthanized at day 21 and sections of lung tissue were stained for TGF-β1. Results are presented in FIG. 11A and are representative of results for three mice per group.

Where [3] appears, read: 10 mg/kg daily i.p. starting at day 10.

The structures appear in SMILES notation. Like-named read-outs stand apart in the source and are kept apart here.

On to `CCC(CC)[C@H](NC(C)=O)[C@@H]1[C@H](O)[C@@H](C(=O)O)C[C@H]1N=C(N)N` [Compound 58, (1S,2S,3S,4R)-3-[(1S)-1-acetamido-2-ethyl-butyl]-4-(diaminomethylideneamino)-2-hydroxy-cyclopentane-1-carboxylic acid], for which the “inhibitor of murine sialidases” value was “potent sialidase inhibitor in mice” in the assay with murine sialidases (listed as Oseltamivir) and “potent inhibitor” in the assay on murine sialidases (listed as oseltamivir). For the same molecule, the 50% inhibitory concentration (IC50) in assay [1] is 1 µM. Also, the “inhibitor of human sialidases” value with human sialidases was “poor inhibitor”. Besides, the “effects of NEU2 and NEU3 on extracellular TGF-β1” value in the assay with human PBMC is recorded as “blocked”. In addition, the “collagen deposition in the lungs (Sirius red)” value in assay [2] (10 mg/kg daily i.p. starting 24 hours after bleomycin) and in assay [2] (setting [3]) was “reduced” in each case. The “total protein in BAL” value in assay [2] (setting [3]) is recorded as “attenuated”. In addition, the “TGF-β1 levels in lung tissue (staining)” value in assay [2] (daily injection starting at day 10) is reported as “reduced TGF-β1 levels”.

Source of the values: patent US20250144172A1, “ANTI-FIBROTIC SIALIDASE INHIBITOR COMPOUNDS AND METHODS OF USE” (The Texas A&M University System, priority 2016, published 2025).
